Laboratory results reported in US10494404B2, “Quinolinium conjugates of cyclosporin” (priority 2014, dated 2019).

Experiments:
Cylophilin D (CypD) = Cylophilin D (CypD) (Homo sapiens, UniProt P30405); test: Cyclophilin D competitive fluorescence polarization assay; conditions: competitive FP assay; FP-CsA 45 nM, enzyme 40 nM; read-out: Ki for cylophilin D binding
Protocol: A competitive fluorescence polarization assay (FP-assay) was used.
Polarization was determined by measuring the ratios between parallel and perpendicular polarized light and calculated as described by Roehrl et al 2004.
Titration of a single probe concentration against different enzyme concentrations was used to determine the dissociation constant (Kd) (Nikolovska et al 2004). The inhibitor constant (Ki) was calculated with the equation shown below in Equation A. (Nikolovska et al 2004).
Three replicates were used for this experiment. […] DMSO % in total solution should remain lower than 1%.

[1] = test system: Ca^2+ mediated PT pore formation; test: Calcium retention capacity (CRC) assay, isolated WT mouse liver mitochondria; type: biochemical; conditions: 8 nM
Excerpt: In order to assess the efficiency of compounds on Ca^2+ mediated PT pore formation we measured calcium retention capacity (CRC) of isolated mouse liver mitochondria. […] Energised mitochondria take up Ca^2+, resulting in a declining fluorescent signal following the Ca^2+ bolus induced peak. Mitochondria take up and buffer Ca^2+ up to a threshold when intramitochondrial [Ca^2+] reaches threshold to induce PT. […] The amount of Ca^2+ required to induce PT characterizes its Ca^2+ sensitivity and defines mitochondrial CRC. Inhibition of CypD, the Ca^2+ sensor of PT, thus leads to increased CRC.
Further experiments were carried out using the techniques discussed in Example 4.
Subcellular fractionation was performed as previously described (Astin et al, 2013). […] At 4° C., the liver was rinsed in PBS to remove excess blood, and any fat and connective tissue was eliminated. PBS was then replaced with isolation buffer containing 1 mM PMSF, and the liver was chopped into pieces (approximately 2 mm in length). Tissue was then homogenized in this solution until no solid matter remained, and then centrifuged at 800G for 10 minutes at 4° C. The nuclear pellet was then discarded, and the post nuclear supernatant retained, and centrifuged at 10300G for another 10 minutes at 4° C. The postmitochondrial supernatant was discarded, and the mitochondrial pellet was resuspended in isolation buffer and PMSF, and kept on ice. Protein levels were quantified using a ThermoScientific BCA protein quantification assay, as per manufacturer's instructions.
Isolated mitochondria were resuspended (500 μg protein/ml) in MSK buffer (75 mM mannitol, 25 mM sucrose, 5 mM potassium phosphate monobasic, 20 mM Tris-HCl, 100 mM KCl, and 0.1% bovine serum albumin, pH 7.4) supplemented with 10 mM succinate, 1 μM rotenone and 1 μM Fluo5N. 200 μl mitochondrial suspension per well was used in 96 well microplates. Compounds were incubated for ten minutes before the plate was assayed in a Fluostar Optima plate reader, using Ex/Em filters at 480/520 […]; CaCl2 was injected approximately every 6.5 minutes for 80 minutes (12 total injections, final concentration of 75 μM). To calculate % inhibition of Ca^2+ induced pore opening, first areas under each curve were calculated, and controls without CaCl2 addition were subtracted as background. The background corrected values were then expressed as the fraction of controls without mitochondria, representing the total amount of Ca^2+ added, unbuffered by mitochondria. Percentage inhibition for each [compound] was then calculated as the % of the corresponding value for the untreated condition. […] For experiments with CypD −/− mice, 100 ul mitochondrial suspension per well was used. CaCl2) was injected approximately every 6.5 minutes for 135 minutes (20 total injections, final concentration of 266 μM). Data were background corrected and expressed as the fraction of controls without mitochondria, and then normalised to the wild type no drug condition. Significance was assessed by one way ANOVA.

HepG2 cells = test: HepG2 high content screening of cell health markers; type: cell-based; conditions: HepG2, 72 h exposure
Protocol: HepG2 cells were plated on 96-well tissue culture treated black walled clear bottomed polystyrene plates, 100 μL, (3000 cells) per well. After 24 hours the cells were dosed with the test compounds at a range of concentrations. At the end of the incubation period, the cells were loaded with the relevant dye/antibody for each cell health markers set out below. The plates were then scanned using an automated fluorescent cellular imager [ArrayScan VTI (Thermo Scientific Cellomics)].
The following cell health markers were measured: • a. Cell count—a decreasing number of cells per well indicates toxicity due to necrosis, apoptosis or a reduction in cellular proliferation. • b. Nuclear area—an increase in nuclear size indicates necrosis or G2 cell cycle arrest and a decrease indicates apoptosis. • c. DNA structure—an increase in DNA structure indicates chromosomal instability and DNA fragmentation. • d. […]
HepG2 cells were seeded in black, clear-bottom 96-well tissue culture plates at a density of 3000 cells per well. […] Cell count, nuclear size and DNA structure were also measured Hoechst 33342 (Life Technologies). Following staining of the HepG2 cells fluorescence was analyzed by image acquisition with a Thermo Fisher Cellomics® ArrayScanVTI High Content Screening Reader (ThermoFisher Scientific Inc., Waltham, Mass.) and vHCS™ view software (ThermoFisher Scientific Inc.). […]

Chain of Cylophilin D (CypD) (P30405 30-207): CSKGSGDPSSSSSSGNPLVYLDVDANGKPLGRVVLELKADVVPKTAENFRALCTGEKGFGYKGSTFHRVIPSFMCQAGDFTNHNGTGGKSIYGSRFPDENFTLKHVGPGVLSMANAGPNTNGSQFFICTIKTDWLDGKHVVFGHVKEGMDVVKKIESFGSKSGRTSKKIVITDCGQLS

Row | SMILES | Ki (Cylophilin D (CypD)) [nM] | inhibition of Ca2+ mediated PT pore formation [1] | toxicity (cell health markers) compared with unmodified CsA (HepG2 cells)
1 | C/C=C/C[C@@H](C)[C@@H](O)[C@H]1C(=O)N[C@@H](CC)C(=O)N(C)C(C/C=C/CCC[n+]2cccc3ccccc32)C(=O)N(C)[C@@H](CC(C)C)C(=O)N[C@@H](C(C)C)C(=O)N(C)[C@@H](CC(C)C)C(=O)N[C@@H](C)C(=O)N[C@H](C)C(=O)N(C)[C@@H](CC(C)C)C(=O)N(C)[C@@H](CC(C)C)C(=O)N(C)[C@@H](C(C)C)C(=O)N1C (stereo partly shown) [Compound 2, [Sar-(E)-Hexen-2-yl 6-quinolinium]^3 CsA] | 125 |  | 
2 | CC[C@@H]1NC(=O)[C@H]([C@H](O)[C@H](C)C/C=C/CCC[n+]2ccc(N(C)C)c3ccc(C(F)(F)F)cc32)N(C)C(=O)[C@H](C(C)C)N(C)C(=O)[C@H](CC(C)C)N(C)C(=O)[C@H](CC(C)C)N(C)C(=O)[C@@H](C)NC(=O)[C@H](C)NC(=O)[C@H](CC(C)C)N(C)C(=O)[C@H](C(C)C)NC(=O)[C@H](CC(C)C)N(C)C(=O)CN(C)C1=O [Compound 3, [Gly(1S,2R,E)-10-(4-dimethylamino-7-trifluoromethylquinolinium)1-hydroxy-2-methyldec-4-enoic acid]^1 CsA] |  | retain high levels inhibition | 
3 | C=CCC1C(=O)N(C)[C@@H](CC(C)C)C(=O)N[C@@H](C(C)C)C(=O)N(C)[C@@H](CC(C)C)C(=O)N[C@@H](C)C(=O)N[C@H](C)C(=O)N(C)[C@@H](CC(C)C)C(=O)N(C)[C@@H](CC(C)C)C(=O)N(C)[C@@H](C(C)C)C(=O)N(C)[C@@H]([C@H](O)[C@H](C)C/C=C/CCC[n+]2ccc(N(C)C)c3ccc(C(F)(F)F)cc32)C(=O)N[C@@H](CC)C(=O)N1C (stereo partly shown) [Compound 4] | 73 | retain high levels inhibition | 
4 | CC[C@@H]1NC(=O)[C@H]([C@H](O)[C@H](C)C/C=C/CCC[n+]2ccc(O)c3ccccc32)N(C)C(=O)[C@H](C(C)C)N(C)C(=O)[C@H](CC(C)C)N(C)C(=O)[C@H](CC(C)C)N(C)C(=O)[C@@H](C)NC(=O)[C@H](C)NC(=O)[C@H](CC(C)C)N(C)C(=O)[C@H](C(C)C)NC(=O)[C@H](CC(C)C)N(C)C(=O)CN(C)C1=O [Compound 5, [Gly-(1S,2R,E)-8-(4-hydroxyquinolinium)-1-hydroxy-2-methyloct-4-ene]^1 CsA] | 64 |  | 
5 | C/C=C/C[C@@H](C)[C@@H](O)[C@H]1C(=O)N[C@@H](CC)C(=O)N(C)C(C/C=C/CCC[n+]2ccc(O)c3ccccc32)C(=O)N(C)[C@@H](CC(C)C)C(=O)N[C@@H](C(C)C)C(=O)N(C)[C@@H](CC(C)C)C(=O)N[C@@H](C)C(=O)N[C@H](C)C(=O)N(C)[C@@H](CC(C)C)C(=O)N(C)[C@@H](CC(C)C)C(=O)N(C)[C@@H](C(C)C)C(=O)N1C (stereo partly shown) [Compound 6, [Sar-(E)-Hexen-2-yl-6-(4-hydroxy)quinolinium]^3 CsA] | 46 |  | 
6 | CC[C@@H]1NC(=O)[C@H]([C@H](O)[C@H](C)C/C=C/CCC(=O)Nc2ccc(NCc3ccc(F)cc3)nc2N)N(C)C(=O)[C@H](C(C)C)N(C)C(=O)[C@H](CC(C)C)N(C)C(=O)[C@H](CC(C)C)N(C)C(=O)[C@@H](C)NC(=O)[C@H](C)NC(=O)[C@H](CC(C)C)N(C)C(=O)[C@H](C(C)C)NC(=O)[C@H](CC(C)C)N(C)C(=O)CN(C)C1=O [Reference Compound 1, [Gly-(1S,2R,E)-7-(flupirtine)-1-hydroxy-2-methyloct-4-enamide]^1 CsA, reference compound] |  |  | A similar reduction in toxicity was not observed
